The record followed here is patent US20250127845A1, “MEDICINAL USES OF OLIGOPEPTIDES IN COMBINATION WITH AN ANTIANDROGEN” (HBC IMMUNOLOGY INC., priority 2022, published 2025).

Several values for one entry are separate records, joined by “and”; a condition that tells them apart may be missing. Equal values may be shown once.

Format in all cases: cell-based, human
One experiment concerns VCaP cells. Description: Clonogenic assay, VCaP cells. The settings on record: 10 μM oligopeptide with […] enzalutamide, p<0.01. Here is the method:
(§1) Test Solutions. SPH test solutions were prepared by adding 10 μg, 40 μg, or 160 μg of SPH powder to 1 ml of DMEM containing 0.3% FBS+2% DMSO and sonicating for 10 min just prior to use. Bicalutamide, referred to herein as BIC, (Sigma-Aldrich, Catalog No. B9061) test solutions were prepared by adding 0.43 or 4.3 μg to 1 ml (1 μM and 10 μM) of DMEM containing 0.3% FBS+2% DMSO and sonicating for 10 min just prior to use.
(§2) Cell Culture. The C4 subline (CRL-3313™, RRID: CVCL 4783), which was derived from the human prostate carcinoma cell line LNCaP, was obtained from ATCC (Manassas, VA). C4, which is referred to herein as LNCaP, is an exemplary androgen receptor-positive (AR+ve) cell line that has an epithelial-like morphology and a low metastatic potential. The PC-3 cell line (CRL-1435, RRID: CVCL_0035) was obtained from ATCC (Manassas, VA). PC-3 is an exemplary androgen receptor-negative (AR−ve) cell line that has an epithelial morphology and a high metastatic potential. The Vertebral-Cancer of the Prostate (VCaP) cell line was obtained from Sigma-Aldrich, USA (Catalog No. 06020201). […]
(§3) Clonogenic Assay. […] The colonies were allowed to develop over 12 days, stained with crystal violet and automatically counted using a TC20 Automated Cell Counter (Bio Rad, Hercules, CA). […]

Experiment [1] relates to ferritin heavy chain 1 (FTH1) mRNA. Description: FTH1 gene expression by qRT-PCR in VCaP cells. To be noted: oligopeptide at 10 μM with […] ENZ. The protocol:
(§4) Gene Expression. LNCaP, PC-3, VCaP, and VCaP-EnzR cells were seeded in 24-well plates and maintained in RPMI1640 medium supplemented with 2 mmol/L L-glutamine. 100 U/mL penicillin, […] streptomycin, and 10% heat-inactivated fetal bovine serum at 37° C. in a humidified 5% CO2 atmosphere. […] SPH absent wells (DMSO 0.04%) were used as the negative control. All experiments were run in triplicate.
(§5) Samples were studied for expression of the ferritin heavy chain 1 (FTH1) and transferrin receptor 1 ([…]) genes. Total RNA was extracted from cell pellets using the UPzol reagent (Biotechrabbit), followed by DNAse treatment (DNAse TURBO) according to the manufacturers' protocols. Complementary DNA (cDNA) was synthesized with the High Capacity cDNA Reverse Transcription Kit (Applied Biosystems) using random hexamers. Gene expression levels were measured by qRT-PCR.
(§6) 1 μl of cDNA (corresponding to 50 ng of reverse transcribed RNA) was amplified by Qpcr (QuantStudio™ 6 Flex Real-Time PCR System), using TaqMan™ Universal PCR Master Mix (Catalog No. 4304437) and a TaqMan™ assay (Roche Molecular Systems, Inc., Pleasanton, CA). FTH1 and TFRC gene expression was estimated relative to expression of the housekeeping gene, beta-actin (ACTB), following the standard formula: 2-ΔCt. TaqMan probe IDs used include: (i) FTH1, Hs01694011_s1; (ii) TFRC, Hs00951083_m1; and (iii) ACTB, Hs01060665_g1. […]
In general terms: Quantitative PCR measures a nucleic acid by following its amplification.

Another experiment deals with VCaP-EnzR cells. The experiment is described as follows: Clonogenic assay, VCaP-EnzR cells. To be noted: 10 μM oligopeptide with […] μM enzalutamide, p<0.001. The protocol:
as §1, §2, §3

In experiment [2] the test system is ferritin heavy chain 1 (FTH1) mRNA. The experiment is described as follows: FTH1 gene expression by qRT-PCR in PC3 cells. The settings on record: oligopeptide at 10 μM with 10 μM BIC. Here is the method:
as §4, §5, §6

In experiment [3] the test system is transferrin receptor 1 (TFRC) mRNA. Description: TFRC gene expression by qRT-PCR in LNCaP cells. To be noted: oligopeptide at 10 μM with 0.4 μM BIC. The protocol:
as §4, §5, §6

The subject of experiment [4] is ferritin heavy chain 1 (FTH1) mRNA. The experiment is described as follows: FTH1 gene expression by qRT-PCR in VCaP-EnzR cells. To be noted: oligopeptide at 10 μM with […] μM ENZ. The protocol:
as §4, §5, §6

Experiment [5] concerns transferrin receptor 1 (TFRC) mRNA. The experiment is described as follows: TFRC gene expression by qRT-PCR in VCaP-EnzR cells. To be noted: oligopeptide at 10 μM with […] μM ENZ. Here is the method:
as §4, §5, §6

A further experiment has as its system PC3 cells. The experiment is described as follows: Clonogenic assay, PC3 cells. To be noted: PC3; 10 μM oligopeptide with 10 μM bicalutamide. Here is the method: as §1
Cell Culture. The C4 subline (CRL-3313™, RRID: CVCL 4783), which was derived from the human prostate carcinoma cell line LNCaP, was obtained from ATCC (Manassas, VA). C4, which is referred to herein as LNCaP, is an exemplary androgen receptor-positive (AR+ve) cell line that has an epithelial-like morphology and a low metastatic potential. The PC-3 cell line (CRL-1435, RRID: CVCL_0035) was obtained from ATCC (Manassas, VA). PC-3 is an exemplary androgen receptor-negative (AR−ve) cell line that has an epithelial morphology and a high metastatic potential. The Vertebral-Cancer of the Prostate (VCaP) cell line was obtained from Sigma-Aldrich, USA (Catalog No. 06020201). VCaP is a human cell line with an epithelial morphology that was established from a metastatic prostate cancer lesion (Korenchuk et al., In Vivo, 15(2):163˜168, 2001). VCaP cells are androgen receptor-positive and express high levels of prostate-specific antigen. The VCaP-EnzR cell line was also obtained from Sigma-Aldrich, USA (Catalog No. SCC421). […] VCaP-EnzR cells are enzalutamide-resistant and therefore are a suitable model for studying castration-resistant prostate cancer. All cell lines were cultured in RPMI1640 supplemented with 2 mmol/L L-glutamine. 100 U/mL penicillin, […] streptomycin, and 10% heat-inactivated fetal bovine serum. All cells were certified negative for Mycoplasma.
Clonogenic Assay. Confluent cells were trypsinized and seeded at densities ranging from 3000 to 5000 cells in 10 cm Petri dishes, depending on the cell line, as recommended in the ATCC or Sigma-Aldrich product sheets. […] Treatments were applied daily for 5 days without media changes. The colonies were allowed to develop over 12 days, stained with crystal violet and automatically counted using a TC20 Automated Cell Counter (Bio Rad, Hercules, CA). Each assay was internally controlled using untreated cells (cell media+0.1% DMSO). Relative plating efficiencies were expressed as percentages relative to the plating efficiency of untreated cells and reported as the relative percent colony survival value. All experiments were performed in triplicate.
All oligopeptides were tested in combination with BIC or ENZ in clonogenic assays. […] SPH absent wells (DMSO 0.04%) were used as the negative control. All experiments were run in triplicate.

Experiment [6] has as its system ferritin heavy chain 1 (FTH1) mRNA. Description: FTH1 gene expression by qRT-PCR in LNCaP cells. The settings on record: oligopeptide at 10 μM with 0.4 μM BIC. Here is the method: as §4, §5, §6
In experiment [7] the test system is transferrin receptor 1 (TFRC) mRNA. The experiment is described as follows: TFRC gene expression by qRT-PCR in PC3 cells. To be noted: oligopeptide at 10 μM with 10 μM BIC. Here is the method: as §4, §5, §6
Experiment [8] has the same test system. Description: TFRC gene expression by qRT-PCR in VCaP cells. To be noted: oligopeptide at 10 μM with […] ENZ. The protocol: as §4, §5, §6

On to “REESGEP [FT-002, synthetic oligopeptide; -B / -E: tested with bicalutamide / enzalutamide]”, for which the “decrease in cell survival compared to […] enzalutamide with 160 SPH” value with VCaP cells is “approximately 40%”. For the same substance, the “FTH1 Fold Change, Average” value in experiment [1] came out at 2.2; in experiment [2] it was 2.0; in [4], 3.6; in experiment [6], 2.0. The substance further yielded a relative survival in the experiment on VCaP-EnzR cells of 11%. The “FTH1 Fold Change (single replicates)” value in [2] (listed as FT-002-B) is 2.0 (2×) and 2.1; in [6] (listed as FT-002-B), 2.1 (2×) and 1.9. Besides, the “TFRC Fold Change (single replicates)” value in experiment [3] is 0.7; in [7] (listed as FT-002-B), 0.7 and 0.8 and 0.6. The “TFRC Fold Change, Average” value in [3] was determined as 0.7; in [5] it was 0.5; in [7] it was 0.7; in [8], 0.6. Besides, the “decrease in survival compared to 10 μM bicalutamide monotreatment” value with PC3 cells is on record as “approximately 70%”.
